In patent publication US20260116920A1, “HUMAN TRANSFERRIN RECEPTOR BINDING PEPTIDE” (PEPTIDREAM INC., priority 2021, published 2026) one finds Kd data, which are given here for 14 molecules.

Positions of bridges follow the written chain, without caps; N, C: chain ends. Non-standard residues stand in square brackets, D forms with d. Residues, ends and D or L forms follow the SMILES beside them. *: point of attachment. Trp(1-CH2COOH) = N[C@@H](Cc1cn(CC(=O)O)c2ccccc12)C(=O)O; Nle(6-morpholino) = N[C@@H](CCCCN1CCOCC1)C(=O)O; Phe(3-COOH) = N[C@@H](Cc1cccc(C(=O)O)c1)C(=O)O; Trp(7-aza) = N[C@@H](Cc1c[nH]c2ncccc12)C(=O)O; NH(CH2CH2O)8Me = COCCOCCOCCOCCOCCOCCOCCOCCN*; NMePhe(3-Cl) = CN[C@@H](Cc1cccc(Cl)c1)C(=O)O; 3Pal(6-NH2) = Nc1ccc(C[C@H](N)C(=O)O)cn1; NMe4Pal = CN[C@@H](Cc1ccncc1)C(=O)O; NMeY = CN[C@@H](Cc1ccc(O)cc1)C(=O)O; 3Pal = N[C@@H](Cc1cccnc1)C(=O)O; 4Pal = N[C@@H](Cc1ccncc1)C(=O)O; PEG4 = NCCOCCOCCOCCOCCC(=O)O; Carboxymethyl = O=C(O)C*; NHCH2CH2OMe = COCCN* Where only a bound is given, the exact number is not on record here.

T1 sequence (P02786 89-760 limits assumed): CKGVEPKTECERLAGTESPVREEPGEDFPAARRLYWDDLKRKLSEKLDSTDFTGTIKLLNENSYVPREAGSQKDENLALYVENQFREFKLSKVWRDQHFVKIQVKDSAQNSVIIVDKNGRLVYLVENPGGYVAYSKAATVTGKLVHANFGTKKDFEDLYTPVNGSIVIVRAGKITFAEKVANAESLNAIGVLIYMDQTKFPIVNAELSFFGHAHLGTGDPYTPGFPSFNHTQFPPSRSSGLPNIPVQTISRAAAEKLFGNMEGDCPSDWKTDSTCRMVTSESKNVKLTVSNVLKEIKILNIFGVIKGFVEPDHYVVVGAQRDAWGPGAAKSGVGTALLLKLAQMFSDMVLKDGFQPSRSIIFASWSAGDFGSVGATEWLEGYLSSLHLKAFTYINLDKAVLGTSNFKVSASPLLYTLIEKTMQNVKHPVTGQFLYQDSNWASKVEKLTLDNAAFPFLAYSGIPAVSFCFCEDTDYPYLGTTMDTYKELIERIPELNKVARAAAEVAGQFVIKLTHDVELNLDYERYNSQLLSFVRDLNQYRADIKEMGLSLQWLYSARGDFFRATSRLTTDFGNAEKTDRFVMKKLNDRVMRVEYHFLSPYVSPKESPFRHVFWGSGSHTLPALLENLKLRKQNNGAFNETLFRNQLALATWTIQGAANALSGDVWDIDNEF

The first test concerns the target T1, human transferrin receptor (hTfR) (Homo sapiens, UniProt P02786).
T1 construct: made in house
Description: Evaluation of molecular interaction between transferrin receptor (hTfR) and peptide using surface plasmon resonance (SPR). The class given is binding. Conditions: KD class for binding to hTfR by SPR; peptide with the linker shown in the same line; 'low signal indicates no activity'; read-out: SPR. The method, boiled down: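 Recombinant human TfR dimer (0.5 μM) was captured on a Ni-charged NTA chip and amine-coupled with EDC/NHS, then ethanolamine-capped. Peptides at 5–100 nM in HEPES pH 8.0 buffer with 150 mM NaCl, 0.05% Tween 20, 0.1% BSA and 1.0% DMSO were run by single-cycle kinetics; KD came from least-squares curve fitting.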
For the molecule `CC[C@H](C)[C@@H]1NC(=O)[C@H](Cc2ccc(OC)cc2)NC(=O)[C@H](Cc2ccc(O)cc2)NC(=O)[C@H](CC(N)=O)NC(=O)[C@H](Cc2c[nH]c3ccccc23)N(C)C(=O)[C@H](C(C)C)NC(=O)[C@H](Cc2cccc(C(=O)O)c2)N(C)C(=O)[C@H](C(C)C)NC(=O)[C@H](C)NC(=O)CSC[C@@H](C(=O)NCC(=O)N[C@@H](CCCCN=[N+]=[N-])C(N)=O)NC(=O)[C@H](Cc2ccc(O)cc2)N(C)C(=O)[C@H](Cc2ccccc2)NC(=O)[C@@H](CCCNC(=N)N)NC(=O)[C@H](CCCNC(=N)N)NC(=O)[C@H]([C@@H](C)CC)NC1=O` [894_3159], the Kd lay in the range of 100 to 1000 nM. On the same count and under the same terms, the value for `CC[C@H](C)[C@@H]1NC(=O)[C@H](Cc2ccc(OCC(=O)O)cc2)NC(=O)[C@H](Cc2ccc(O)cc2)NC(=O)[C@H](CC(N)=O)NC(=O)[C@H](Cc2cn(CC(=O)O)c3ccccc23)NC(=O)[C@H](C(C)C)NC(=O)[C@H](Cc2cccc(Cl)c2)N(C)C(=O)[C@H](C(C)C)NC(=O)[C@H](C)NC(=O)CSC[C@@H](C(=O)NCCOCCOCCOCCOCCC(N)=O)NC(=O)[C@H](Cc2ccc(O)cc2)N(C)C(=O)[C@H](Cc2ccccc2)NC(=O)[C@H](CCCNC(=N)N)NC(=O)[C@H](CCCCN2CCOCC2)NC(=O)[C@H]([C@@H](C)CC)NC1=O` [894_0388] was less than 1 nM; that for `CC[C@H](C)[C@@H]1NC(=O)[C@H](Cc2ccc(OC)cc2)NC(=O)[C@H](Cc2ccc(O)cc2)NC(=O)[C@H](CC(N)=O)NC(=O)[C@H](Cc2c[nH]c3ccccc23)N(C)C(=O)[C@H](C(C)C)NC(=O)[C@H](Cc2cccc(Cl)c2)N(C)C(=O)[C@H](C(C)C)NC(=O)[C@H](C)NC(=O)CSC[C@@H](C(=O)NCC(=O)N[C@@H](CCCCN=[N+]=[N-])C(N)=O)NC(=O)[C@H](Cc2ccc(O)cc2)N(C)C(=O)[C@H](Cc2ccc(O)cc2)NC(=O)[C@H](CCCNC(=N)N)NC(=O)[C@H](CCCNC(=N)N)NC(=O)[C@H]([C@@H](C)CC)NC1=O` [894_3166] was 1 to 100 nM; that for `CC[C@H](C)[C@@H]1NC(=O)[C@H](Cc2cccnc2)NC(=O)[C@H](Cc2ccc(N)nc2)NC(=O)[C@H](CC(N)=O)NC(=O)[C@H](Cc2cn(CC(=O)O)c3ccccc23)NC(=O)[C@H](C(C)C)NC(=O)[C@H](Cc2cccc(Cl)c2)N(C)C(=O)[C@H](C(C)C)NC(=O)[C@H](C)NC(=O)CSC[C@@H](C(=O)NCCOCCOCCOCCOCCC(N)=O)NC(=O)[C@H](Cc2ccc(O)cc2)N(C)C(=O)[C@H](Cc2ccccc2)NC(=O)[C@H](CCCNC(=N)N)NC(=O)[C@H](CCCNC(=N)N)NC(=O)[C@H]([C@@H](C)CC)NC1=O` [894_0338] ({CH2CO}-AV[NMePhe(3-Cl)]V[Trp(1-CH2COOH)]N[3Pal(6-NH2)][3Pal]IIRRF[NMeY]C[PEG4]-NH2; thioether N-15) was 1 to 100 nM.

`CC[C@H](C)[C@@H]1NC(=O)[C@H](Cc2cccnc2)NC(=O)[C@H](Cc2ccc(O)cc2)NC(=O)[C@H](CC(N)=O)NC(=O)[C@H](Cc2c[nH]c3ccccc23)NC(=O)[C@H](C(C)C)NC(=O)[C@H](Cc2cccc(Cl)c2)N(C)C(=O)[C@H](C(C)C)NC(=O)[C@H](C)NC(=O)CSC[C@@H](C(=O)NCCOCCOCCOCCOCCC(N)=O)NC(=O)[C@H](Cc2ccc(O)cc2)N(C)C(=O)[C@H](Cc2ccncc2)NC(=O)[C@H](CCC(=O)NCCOC)NC(=O)[C@H](CCC(=O)NCCOC)NC(=O)[C@H]([C@@H](C)CC)NC1=O` [894_0326] ({CH2CO}-AV[NMePhe(3-Cl)]VWNY[3Pal]IIE(NHCH2CH2OMe)E(NHCH2CH2OMe)[4Pal][NMeY]C[PEG4]-NH2; thioether N-15): the Kd is 1 to 100 nM.

The same test, now with this note: peptide with linker, surface plasmon resonance; read-out: SPR (KD class for binding to hTfR).
Turning to `CC[C@H](C)[C@@H]1NC(=O)[C@H](Cc2ccc(OCC(=O)O)cc2)NC(=O)[C@H](Cc2ccc(O)cc2)NC(=O)[C@H](CC(N)=O)NC(=O)[C@H](Cc2c[nH]c3ncccc23)NC(=O)[C@H](C(C)C)NC(=O)[C@H](Cc2cccc(Cl)c2)N(C)C(=O)[C@H](C(C)C)NC(=O)[C@H](C)NC(=O)CSC[C@@H](C(=O)NCCOCCOCCOCCOCCC(N)=O)NC(=O)[C@H](Cc2ccc(O)cc2)N(C)C(=O)[C@H](Cc2ccncc2)NC(=O)[C@H](CCCNC(=N)N)NC(=O)[C@H](CCC(=O)NCCOCCOCCOCCOCCOCCOCCOCCOC)NC(=O)[C@H]([C@@H](C)CC)NC1=O` [compound 218], the Kd is 1 to 100 nM. Still for that read-out and setting: the value for `CC[C@H](C)[C@@H]1NC(=O)[C@H](Cc2ccc(OCC(=O)O)cc2)NC(=O)[C@H](Cc2ccc(O)cc2)NC(=O)[C@H](CC(N)=O)NC(=O)[C@H](Cc2c[nH]c3ncccc23)NC(=O)[C@H](C(C)C)NC(=O)[C@H](Cc2cccc(Cl)c2)N(C)C(=O)[C@H](C(C)C)NC(=O)[C@H](C)NC(=O)CSC[C@@H](C(=O)NCCOCCOCCOCCOCCC(N)=O)NC(=O)[C@H](Cc2ccc(O)cc2)N(C)C(=O)[C@H](Cc2cccc(C(=O)O)c2)NC(=O)[C@H](CCCCN2CCOCC2)NC(=O)[C@H](CCC(=O)NCCOCCOCCOCCOCCOCCOCCOCCOC)NC(=O)[C@H]([C@@H](C)CC)NC1=O` [compound 220] ({CH2CO}-AV[NMePhe(3-Cl)]V[Trp(7-aza)]NYY(Carboxymethyl)IIE(NH(CH2CH2O)8Me)[Nle(6-morpholino)][Phe(3-COOH)][NMeY]C[PEG4]-NH2; thioether N-15) was 1 to 100 nM.

The test is the same for the next values; noted with them: surface plasmon resonance, binding to hTfR; KD class symbol; read-out: SPR (KD value).
With `CC[C@H](C)[C@@H]1NC(=O)[C@H](Cc2ccc(OCC(=O)O)cc2)NC(=O)[C@H](Cc2ccc(O)cc2)NC(=O)[C@H](CC(N)=O)NC(=O)[C@H](Cc2cn(CC(=O)O)c3ccccc23)NC(=O)[C@H](C(C)C)NC(=O)[C@H](Cc2cccc(Cl)c2)N(C)C(=O)[C@H](C(C)C)NC(=O)[C@H](C)NC(=O)CSC[C@@H](C(=O)NCC(=O)NCCOCCOCCOCCOCCOCCOCCOCCOCCC(=O)N[C@@H](CCCCN=[N+]=[N-])C(N)=O)NC(=O)[C@H](Cc2ccc(O)cc2)N(C)C(=O)[C@H](Cc2ccccc2)NC(=O)[C@H](CCCNC(=N)N)NC(=O)[C@H](CCCNC(=N)N)NC(=O)[C@H]([C@@H](C)CC)NC1=O` [compound 47], the Kd lay in the range of 1 to 100 nM.

With `CC[C@H](C)[C@@H]1NC(=O)[C@H](Cc2ccc(O)cc2)NC(=O)[C@H](Cc2ccc(O)cc2)NC(=O)[C@H](CC(N)=O)NC(=O)[C@H](Cc2c[nH]c3ccccc23)NC(=O)[C@H](C(C)C)NC(=O)[C@H](Cc2ccccc2)N(C)C(=O)[C@H](C(C)C)NC(=O)[C@H](C)NC(=O)CSC[C@@H](C(N)=O)NC(=O)[C@H](Cc2ccc(O)cc2)N(C)C(=O)[C@H](Cc2ccccc2)NC(=O)[C@H](CCCNC(=N)N)NC(=O)[C@H](CCCCNC(=O)CCOCCOCCOCCOC)NC(=O)[C@H]([C@@H](C)CC)NC1=O` [compound 1], the Kd fell in the range of 1 to 100 nM. Turning to `CC[C@H](C)[C@@H]1NC(=O)[C@H](Cc2ccc(OC)cc2)NC(=O)[C@H](Cc2ccc(N)nc2)NC(=O)[C@H](CC(N)=O)NC(=O)[C@H](Cc2c[nH]c3ccccc23)NC(=O)[C@H](C(C)C)NC(=O)[C@H](Cc2ccncc2)N(C)C(=O)[C@H](C(C)C)NC(=O)[C@H](C)NC(=O)CSC[C@@H](C(=O)NCCOCCOCCOCCOCCC(N)=O)NC(=O)[C@H](Cc2ccc(O)cc2)N(C)C(=O)[C@H](Cc2ccccc2)NC(=O)[C@H](CCCNC(=N)N)NC(=O)[C@H](CCCNC(=N)N)NC(=O)[C@H]([C@@H](C)CC)NC1=O` [compound 64] ({CH2CO}-AV[NMe4Pal]VWN[3Pal(6-NH2)]Y(Me)IIRRF[NMeY]C[PEG4]-NH2; thioether N-15), the Kd fell in the range of 1 to 100 nM. On the same count and under the same terms, the value for `CC[C@H](C)[C@@H]1NC(=O)[C@H](Cc2ccc(OC)cc2)NC(=O)[C@H](Cc2ccc(O)cc2)NC(=O)[C@H](CC(N)=O)NC(=O)[C@H](Cc2c[nH]c3ccccc23)N(C)C(=O)[C@H](C(C)C)NC(=O)[C@H](Cc2ccc(F)cc2)N(C)C(=O)[C@H](C(C)C)NC(=O)[C@H](C)NC(=O)CSC[C@@H](C(N)=O)NC(=O)[C@H](Cc2ccc(O)cc2)N(C)C(=O)[C@H](Cc2ccccc2)NC(=O)[C@H](CCCCNC(=O)CCOCCOCCOCCOC)NC(=O)[C@H](CCCNC(=N)N)N(C)C(=O)[C@H]([C@@H](C)CC)NC1=O` [compound 8] was 1 to 100 nM; that for `CC[C@H](C)[C@@H]1NC(=O)[C@H](Cc2cccnc2)NC(=O)[C@H](Cc2ccc(O)cc2)NC(=O)[C@H](CC(N)=O)NC(=O)[C@H](Cc2cn(CC(=O)O)c3ccccc23)NC(=O)[C@H](C(C)C)NC(=O)[C@H](Cc2cccc(Cl)c2)N(C)C(=O)[C@H](C(C)C)NC(=O)[C@H](C)NC(=O)CSC[C@@H](C(=O)NCCOCCOCCOCCOCCC(N)=O)NC(=O)[C@H](Cc2ccc(O)cc2)N(C)C(=O)[C@H](Cc2cccc(C(=O)O)c2)NC(=O)[C@H](CCCNC(=N)N)NC(=O)[C@H](CCCNC(=N)N)NC(=O)[C@H]([C@@H](C)CC)NC1=O` [compound 74] ({CH2CO}-AV[NMePhe(3-Cl)]V[Trp(1-CH2COOH)]NY[3Pal]IIRR[Phe(3-COOH)][NMeY]C[PEG4]-NH2; thioether N-15) was 1 to 100 nM. The same measure, in the same setting: the value for `CC[C@H](C)[C@@H]1NC(=O)[C@H](Cc2ccc(OC)cc2)NC(=O)[C@H](Cc2ccc(O)cc2)NC(=O)[C@H](CC(N)=O)NC(=O)[C@H](Cc2c[nH]c3ccccc23)NC(=O)[C@H](C(C)C)NC(=O)[C@H](Cc2cccnc2)N(C)C(=O)[C@H](C(C)C)NC(=O)[C@H](C)NC(=O)CSC[C@@H](C(=O)NCCOCCOCCOCCOCCC(N)=O)NC(=O)[C@H](Cc2ccc(O)cc2)N(C)C(=O)[C@H](Cc2ccccc2)NC(=O)[C@H](CCCNC(=N)N)NC(=O)[C@H](CCCNC(=N)N)NC(=O)[C@H]([C@@H](C)CC)NC1=O` [compound 55] was 1 to 100 nM; that for `CC[C@H](C)[C@@H]1NC(=O)[C@H](Cc2ccc(OC)cc2)NC(=O)[C@H](Cc2ccc(N)nc2)NC(=O)[C@H](CC(N)=O)NC(=O)[C@H](Cc2cn(CC(=O)O)c3ccccc23)NC(=O)[C@H](C(C)C)NC(=O)[C@H](Cc2cccc(Cl)c2)N(C)C(=O)[C@H](C(C)C)NC(=O)[C@H](C)NC(=O)CSC[C@@H](C(=O)NCCOCCOCCOCCOCCC(N)=O)NC(=O)[C@H](Cc2ccc(O)cc2)N(C)C(=O)[C@H](Cc2ccncc2)NC(=O)[C@H](CCCNC(=N)N)NC(=O)[C@H](CCCNC(=N)N)NC(=O)[C@H]([C@@H](C)CC)NC1=O` [compound 50] was 1 to 100 nM.
